Test results taken from PMC13195669, “GPR3 Ligands Discovered through Combined Virtual and Conformational Biosensor-Based Screening” (Journal of the American Chemical Society, 2026).

Target: T1, GPR3 (Homo sapiens, UniProt P46089, INS231ASEIGTGFPFDPHYVEVLGERMHYVDVGPRDGTPVLFLHGNPTSSYVWRNIIPHVAPTHRCIAPDLIGMGKSDKPDLGYFFDDHVRFMDAFIEALGLEEVVLVIHDWGSALGFHWAKRNPERVKGIAFMEFIRPIPTWDEWPEFARETFQAFRTTDVGRKLIIDQNVFIEGTLPMGVVRPLTEVEMDHYREPFLNPVDREPLWRFPNELPIAGEPANIVALVEEYMDWLHQSPVPKLLFWGTPGVLIPPAEAARLAKSLPNCKAVDIGPGLNLLQEDNPDLIGSEIARWLSTLEISGGS)
T1 construct: ligated to the full-length C-terminus; expressed in transfected cells; some experiments transient
T1 sequence (P46089 with tags, fused parts or gaps with the stated changes): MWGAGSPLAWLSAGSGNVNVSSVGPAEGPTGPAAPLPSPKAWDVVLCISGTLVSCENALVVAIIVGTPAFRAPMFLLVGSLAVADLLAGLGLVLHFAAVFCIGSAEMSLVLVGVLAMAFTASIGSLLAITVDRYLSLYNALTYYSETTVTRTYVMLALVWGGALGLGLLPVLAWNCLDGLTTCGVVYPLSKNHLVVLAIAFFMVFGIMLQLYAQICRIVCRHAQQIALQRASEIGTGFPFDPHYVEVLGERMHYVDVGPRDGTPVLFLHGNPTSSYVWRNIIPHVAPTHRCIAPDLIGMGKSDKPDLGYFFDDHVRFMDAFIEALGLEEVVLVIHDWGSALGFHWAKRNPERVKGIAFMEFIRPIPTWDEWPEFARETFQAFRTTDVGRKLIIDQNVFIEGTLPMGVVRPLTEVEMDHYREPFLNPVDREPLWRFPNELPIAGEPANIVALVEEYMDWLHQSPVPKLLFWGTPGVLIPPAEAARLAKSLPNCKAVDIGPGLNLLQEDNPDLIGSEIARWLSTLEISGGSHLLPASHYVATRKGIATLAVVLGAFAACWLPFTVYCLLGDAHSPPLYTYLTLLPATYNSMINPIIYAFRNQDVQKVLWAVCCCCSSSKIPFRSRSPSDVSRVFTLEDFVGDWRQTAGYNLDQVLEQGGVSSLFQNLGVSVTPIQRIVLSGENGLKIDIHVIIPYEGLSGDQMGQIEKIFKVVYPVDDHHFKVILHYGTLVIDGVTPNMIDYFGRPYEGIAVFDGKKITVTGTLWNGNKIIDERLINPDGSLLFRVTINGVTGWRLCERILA
Assay: BRET-based conformational GPR3 biosensor (GPR3-HaloTag/Nluc) in HEK293A cells
Type: cell-based
Conditions: for EC50: HEK293A cells stably expressing the biosensor, read-out: EC50 at GPR3-HaloTag/Nluc
Description: To develop a conformational GPR3 biosensor that can be used in a microtiter well plate format, we employed the intramolecular BRET design previously validated for several GPCRs. − The BRET donor NanoLuc was fused to the receptor’s full-length C-terminus and the self-labeling protein tag, HaloTag, was inserted into GPR3′s third intracellular loop between amino acids Arg231 and His232 (Figure a; sequence in Figure S1). […]
Plasmids and molecular cloning […]
Plasmids encoding the conformational biosensors α2AAR- and β2AR-HaloTag/Nluc9 and the Gs heterotrimer dissociation sensor10 were previously described. The expression plasmid encoding N-terminally HA-tagged GPR3 (cat. no.
#GPR003TN00) on a pcDNA3.1+ vector was obtained from the cDNA resource center (cdna.org). The Nluc and HaloTag in-serts were amplified with overhanging restriction sites from β2AAR- HaloTag/Nluc and ligated to the full-length C-terminus or inserted into icl3 of GPR3, respectively, to obtain the conformational biosensor GPR3-HaloTag/Nluc. Point mutants of GPR3-HaloTag/Nluc were generated using the GeneArt Site-directed Mutagenesis System (Thermo Fisher Scientific). All con-structs were verified by sequencing (Eurofins genomics). […]
serum albumin (BSA) were obtained from Sigma Aldrich (Merck KGaA). Dulbecco's Modified Eagle's Medium (DMEM), Dul- […]
Diphenyleneiodonium chloride (DPI) and AF64394 were purchased from Tocris (Bio -Techne). The TMB (3, 3', 5, 5' tetramethyl benzidine) substrate reagent set was […]
were obtained in a single kit from Promega (cat. no. N1662). D-luciferin-sodium and the S1PR1 agonist III were from Med-ChemExpress. The Rluc substrate coelenterazine 400a was from NanoLight Technology (cat. no. 340 -10). White -wall, white - bottomed 96 -well, black -wall, black bottomed and transparent 96 -well microtiter plates were from Brand.
HEK293A cells were used for transient transfection and grown in Dulbecco’s modified Eagle’s medium (DMEM) supplemented with 2 mM glutamine, 10 % fetal calf serum, streptomycin (0.1 mg/mL), and penicillin (100 U/mL) at 37 °C with 5 % CO2. For the generation of stable GPR3 -HaloTag/Nluc cells, HEK293A cells grown in T75 flasks were transfected at a confluence of 40 – […]
Absence of mycoplasma contamination was routinely
Transient transfection and plating
Resuspended cells (300,000 cells/mL) were transfected in suspension with a total of 1 μg DNA/mL suspension using PEI (1 mg/ml stock solution; 3 μL PEI solution per μg DNA). […]
Cells mixed with the transfection reagents were seeded onto poly-D-lysine–precoated, 96-well plates and grown for 48 h at 37 °C with 5 % CO2. Stable α2AAR-, β2AR- or GPR3-HaloTag/Nluc expressing cells were seeded 24 h before the experi-ment at a density of 800,000 cells/mL into white 96-well plates. To monitor changes in BRET in with conformational GPCR […]
experiment. White plates were used for BRET and luminescence measurements, black plates for FRET experiments and trans-parent plates for absorbance-based quantification of receptor surface expression levels.

Row | SMILES | effect of preincubation on OEA and oleamide potency in GPR3 conformation assay (30 µM preincubation) | EC50 [µM]
1 | N=c1n(Cc2ccccc2)c2ccccc2n1CC1CC1 [compound 33] | reduced potency of OEA, but not oleamide | 5
2 | N=c1n(Cc2ccccc2)c2ccccc2n1CC(O)COc1ccc(Cl)cc1 (stereo not shown) [compound 52] | – | 25
3 | Cc1ccc(NC(=O)CN2CCN(C(=O)CCc3ccc(Cl)cc3)CC2)cc1 [compound 115] | – | 85
